Laboratory results taken from patent publication US20240254138A1, “TRICYCLIC PYRIMIDINES AS CYCLIN-DEPENDENT KINASE 7 (CDK7) INHIBITORS” (JANSSEN PHARMACEUTICA NV, priority 2021, published 2024).
Read-outs that look alike come from different tables or passages of the source.

Assays:
[1] = test system: RNA Polymerase II Serine 5 phosphorylation in A549 cells overexpressing CDK7-mutant (C312S); test: Imaging-based cellular RNA PolII Ser5 phosphorylation assay in A549 cells overexpressing CDK7-mutant (C312S); type: cell-based, human; conditions: RNA PolII Ser5 phosphorylation, averaged over all measurements; for IC50: Homo sapiens, A549, A549 cells overexpressing CDK7-mutant (C312S), read-out: CDK7_A549 mutant hCDK7(pIC50) (converted); for CDK7_A549 mutant hCDK7(pIC50): A549 cells overexpressing CDK7-mutant (C312S)
Outline: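 Readout was automated imaging of anti-phospho-Ser5 Rpb1 CTD immunofluorescence, with IC50 fitted to % control versus concentration. Cells were A549 stably overexpressing non-covalently targetable CDK7 C312S alongside wild-type, exposed to compound 3 h at 37 °C. DMSO and 10 μM reference compound served as controls.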

[2] = biological target: CDK7/cyclinH/MAT1 trimeric complex (Homo sapiens, UniProt P50613); test: In vitro CDK7 assay, potency of irreversible covalent inhibitors (kinact/KI), coupled PK/LDH ADP readout at 340 nm
Chain of CDK7/cyclinH/MAT1 trimeric complex (P50613 whole entry): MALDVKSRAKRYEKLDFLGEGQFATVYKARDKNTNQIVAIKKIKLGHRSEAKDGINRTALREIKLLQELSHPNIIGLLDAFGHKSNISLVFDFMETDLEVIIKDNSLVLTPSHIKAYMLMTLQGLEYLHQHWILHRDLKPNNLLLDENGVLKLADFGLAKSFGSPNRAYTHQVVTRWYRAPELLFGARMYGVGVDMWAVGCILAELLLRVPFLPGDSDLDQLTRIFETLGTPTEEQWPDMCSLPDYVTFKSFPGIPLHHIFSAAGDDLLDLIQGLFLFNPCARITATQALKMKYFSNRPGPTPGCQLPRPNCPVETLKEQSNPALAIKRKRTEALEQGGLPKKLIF
Chain of CDK7/cyclinH/MAT1 trimeric complex (P51946 whole entry partner): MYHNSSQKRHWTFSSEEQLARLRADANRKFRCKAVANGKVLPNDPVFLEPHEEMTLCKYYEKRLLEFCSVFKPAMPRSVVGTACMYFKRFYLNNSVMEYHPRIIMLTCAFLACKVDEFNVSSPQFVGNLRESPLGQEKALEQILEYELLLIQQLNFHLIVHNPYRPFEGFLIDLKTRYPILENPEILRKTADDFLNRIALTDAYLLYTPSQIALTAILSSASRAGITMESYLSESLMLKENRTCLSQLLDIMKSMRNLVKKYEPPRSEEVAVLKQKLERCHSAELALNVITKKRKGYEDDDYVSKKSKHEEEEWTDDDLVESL
Chain of CDK7/cyclinH/MAT1 trimeric complex (P51948 whole entry partner): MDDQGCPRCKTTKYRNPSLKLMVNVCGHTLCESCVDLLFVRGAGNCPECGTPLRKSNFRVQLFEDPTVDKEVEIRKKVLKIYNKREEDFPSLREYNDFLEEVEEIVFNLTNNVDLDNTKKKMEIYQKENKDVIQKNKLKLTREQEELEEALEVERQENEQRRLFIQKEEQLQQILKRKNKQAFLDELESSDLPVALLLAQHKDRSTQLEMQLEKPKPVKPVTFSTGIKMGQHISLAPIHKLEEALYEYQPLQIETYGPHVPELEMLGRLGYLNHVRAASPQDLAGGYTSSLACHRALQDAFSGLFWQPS

[3] = test system: RNA Polymerase II Serine 5 phosphorylation (Rpb1 CTD, downstream substrate of CDK7) in A549 cells; test: Imaging-based cellular RNA PolII Ser5 phosphorylation assay in A549 cells; type: cell-based, human; conditions: wild-type CDK7, RNA PolII Ser5 phosphorylation, averaged over all measurements; for IC50: Homo sapiens, A549, A549 cells, read-out: CDK7_A549 Wild-type CDK7 (pIC50) (converted); for CDK7_A549 Wild-type CDK7 (pIC50): A549 cells
Outline: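 IC50 derived by fitting % control (DMSO high, 10 μM reference low) against concentration, with Hill slope. Readout: high-content imaging of phospho-Ser5 Rpb1 CTD antibody staining in fixed, permeabilized A549 cells exposed to compound 3 h after 20 h culture in 1% FBS DMEM.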

[4] = read-out: CDK7 (kinact/KI, M^−1*s^−1), potency of irreversible covalent inhibitors, 1 mM ATP, room temperature, averaged values over all measurements
[5] = CDK7 (20 nM enz.) (KI, μM), 20 nM enzyme
[6] = read-out: CDK7 (20 nM enz.) (kinact, s^−1), 20 nM enzyme
[7] = read-out: CDK7 (20 nM enz.) (kinact/KI, M^−1*s^−1), 20 nM enzyme
[8] = read-out: CDK7 (20 nM enz.) (kobs/[I], M^−1*s^−1), 20 nM enzyme
[9] = CDK7 (KI(μM)), […], 1 mM ATP, room temperature, averaged values over all measurements
[10] = read-out: CDK7 (kinact, s^−1), kinact = maximal rate of inactivation, 1 mM ATP, room temperature, averaged values over all measurements

Row | SMILES | IC50 [1] | IC50 [3] | Ki [2, 5] | kinact [2, 6] | kinact/KI [2, 7] | also measured
1 | C=CC(=O)N1CC(N2CCC(c3ccc4c(c3)Nc3nccc(-c5cnn(C)c5)c3CO4)CC2)C1 [Compound 39] | > 10000 nM | 141 nM |  |  |  | kinact/KI [2, 4]: 803 M⁻¹ s⁻¹
2 | CC#CC(=O)N1CCN(C2CCN(c3cc4c(c(C)n3)OCc3c(N5CCOCC5)ccnc3N4)CC2)CC1 [Compound 396] | > 10000 nM | 93.3 nM | 0.0643 µM | 5.18e-05 s⁻¹ | 807 M⁻¹ s⁻¹ | 
3 | CC#CC(=O)N1CC(N2CCC(c3cc(C#N)c4c(c3)Nc3nccc(N5CCOCC5)c3C(C)O4)CC2)C1 (single isomer, unassigned) [Compound 443] | 4270 nM | 20.4 nM |  |  |  | kinact/KI [2, 8]: 1430 M⁻¹ s⁻¹
4 | C=CC(=O)N1CC[C@H](N2CC(c3cc4c(c(C)n3)O[C@@H](C)c3c(N5CCOCC5)ccnc3N4)C2)C1 (single isomer, unassigned) [Compound 458] | > 10000 nM | 5250 nM | 19.2 µM | 6.89e-05 s⁻¹ | 3.59 M⁻¹ s⁻¹ | 
5 | CC#CC(=O)N1CC(n2cc(-c3cc4c(c(C)n3)OC(C)c3c(N5CCOCC5)ccnc3N4)cn2)C1 (stereo not shown) [Compound 380] | > 10000 nM | 162 nM | 0.241 µM | 4.27e-05 s⁻¹ | 177 M⁻¹ s⁻¹ | 
6 | C=CC(=O)N1CC[C@@H](N2CC(c3cc4c(c(C)n3)OCc3c(-c5cnn(C)c5)ccnc3N4)C2)C1 (single isomer, unassigned) [Compound 204] | > 10000 nM | 339 nM | 0.352 µM | 3.71e-05 s⁻¹ | 105 M⁻¹ s⁻¹ | 
7 | C=CC(=O)N1CC(N2CCC(c3cc(C)c4c(c3)Nc3nccc(N5CCS(=O)(=O)CC5)c3CO4)CC2)C1 [Compound 71] | > 10000 nM | 245 nM | 0.0575 µM | 5.6e-05 s⁻¹ | 973 M⁻¹ s⁻¹ | 
8 | C=C(C(=O)N1CC[C@H](N2CCC(c3cc4c(c(C)n3)OCc3c(-c5cnn(C)c5)ccnc3N4)CC2)C1)n1cccn1 (single isomer, unassigned) [Compound 372] | > 10000 nM | 70.8 nM | 0.0621 µM | 3.74e-05 s⁻¹ | 603 M⁻¹ s⁻¹ | 
9 | C=CC(=O)N1CC(N2CCC(c3cc(C#N)c4c(c3)Nc3nccc(N5CCOCC5)c3[C@@H](C)O4)CC2)C1 (single isomer, unassigned) [Compound 354] | 4570 nM | 15.1 nM |  |  |  | kinact/KI [2, 8]: 2670 M⁻¹ s⁻¹
10 | C=CC(=O)N1CCC(N2CC(c3cc4c(c(C(F)(F)F)n3)OCc3c(N5CCOCC5)ccnc3N4)C2)CC1 [Compound 359] | 2820 nM | 102 nM | 0.028 µM | 2.79e-05 s⁻¹ |  | CDK7 (20 nM enz.) (kinact/KI, M^−1*s^−1) ([2]; 20 nM enzyme): 994.882 M⁻¹ s⁻¹
11 | C=CC(=O)N1CC(N2CCC(c3cc4c(c(C)n3)OCc3c(N5CCOCC5)ccnc3N4)CC2)C1 [Compound 217] |  |  | 0.101 µM |  |  | CDK7_A549 mutant hCDK7(pIC50) [1]: <5; CDK7 (20 nM enz.) (kinact, s^−1) ([2]; 20 nM enzyme): 8.548e-05 s⁻¹; CDK7 (20 nM enz.) (kinact/KI, M^−1*s^−1) ([2]; 20 nM enzyme): 845.246 M⁻¹ s⁻¹; CDK7_A549 Wild-type CDK7 (pIC50) [3]: 7.15
12 | C=CC(=O)N1CCC(c2ccc(-c3ccc4c(c3)Nc3nccc(N5CCOCC5)c3CO4)cn2)C1 (stereo not shown) [Compound 25] | > 10000 nM | 891 nM |  |  |  | Ki [2, 9]: 0.0648 µM; kinact [2, 10]: 2.33e-05 s⁻¹; kinact/KI [2, 4]: 254 M⁻¹ s⁻¹
13 | C=CC(=O)N1CC(N2CCC(O)(c3ccc4c(c3)Nc3nccc(N5CCOCC5)c3C(C)O4)CC2)C1 (stereo not shown) [Compound 154] | > 10000 nM | 117 nM | 0.137 µM | 5.98e-05 s⁻¹ | 438 M⁻¹ s⁻¹ | 
14 | C=CC(=O)N1CC2(CC(c3cc(F)c4c(c3)Nc3nccc(N5CCOCC5)c3CO4)C2)C1 [Compound 162] | > 10000 nM | 182 nM | 0.149 µM | 4.88e-05 s⁻¹ | 327 M⁻¹ s⁻¹ | 
15 | C=CC(=O)N1CC[C@@H](N2CC(c3cc(C)c4c(c3)Nc3nccc(N5CCOCC5)c3[C@@H](C)O4)C2)C1 (single isomer, unassigned) [Compound 398] | 6170 nM | 30.2 nM |  |  |  | kinact/KI [2, 8]: 1630 M⁻¹ s⁻¹
16 | C=CC(=O)N1CC[C@@H](N2CC(c3cc(C)c4c(c3)Nc3nccc(C5CCOCC5)c3CO4)C2)[C@H](F)C1 (racemic) [Compound 206] | > 10000 nM | 93.3 nM | 0.0443 µM | 4.45e-05 s⁻¹ | 1000 M⁻¹ s⁻¹ | 
17 | C=CC(=O)N1CC(N2CCC(O)(c3cc(C)c4c(c3)Nc3nccc(N5CCOCC5)c3CO4)CC2)C1 [Compound 140] | > 10000 nM | 117 nM | 0.0741 µM | 6.51e-05 s⁻¹ | 878 M⁻¹ s⁻¹ | 

Row | SMILES | IC50 [1] | IC50 [3] | Ki [2, 5] | kinact [2, 6] | kinact/KI [2, 7] | also measured
18 | CC#CC(=O)N1CCC(N2CC(c3cc4c(c(C(F)(F)F)n3)O[C@H](C)c3c(N5CCOCC5)ccnc3N4)C2)CC1 (single isomer, unassigned) [Compound 505] | 2400 nM | 38 nM |  |  | 246 M⁻¹ s⁻¹ | 
19 | C=CC(=O)N1CC(N2CCCC(c3ccc4c(c3)Nc3nccc(N5CCOCC5)c3CO4)CC2)C1 (stereo not shown) [Compound 42] | > 10000 nM | 123 nM |  |  |  | Ki [2, 9]: 0.0811 µM; kinact [2, 10]: 6.17e-05 s⁻¹; kinact/KI [2, 4]: 761 M⁻¹ s⁻¹
20 | C=CC(=O)N1CC(N2CCC(c3cc(C#N)c4c(c3)Nc3nccc(N5CCOCC5)c3C(C)O4)CC2)C1 (stereo not shown) [Compound 352] |  |  | 0.055 µM | 5.53e-05 s⁻¹ | 1010 M⁻¹ s⁻¹ | CDK7_A549 mutant hCDK7(pIC50) [1]: 5.51; CDK7_A549 Wild-type CDK7 (pIC50) [3]: 7.52
21 | C=CC(=O)N1CC(N2CC[C@@H](c3cc(C)c4c(c3)Nc3nccc(C5CCOCC5)c3CO4)N(C)CC2)C1 (single isomer, unassigned) [Compound 256] | 8320 nM | 53.7 nM | 0.0827 µM | 6.71e-05 s⁻¹ | 811 M⁻¹ s⁻¹ | 
22 | C#CCCN(C)C/C=C/C(=O)N1CC(N2CCC(c3cc(C)c4c(c3)Nc3nccc(C5CCOCC5)c3CO4)CC2)C1 [Compound 124] | > 10000 nM | 97.7 nM |  |  |  | kinact/KI [2, 8]: 1550 M⁻¹ s⁻¹
23 | C=CC(=O)N1CC[C@H](N2CC(c3cc4c(c(C(F)(F)F)n3)O[C@@H](C)c3c(N5CCOCC5)ccnc3N4)C2)C1 (single isomer, unassigned) [Compound 500] | > 10000 nM | 1200 nM |  |  | 12.7 M⁻¹ s⁻¹ | 
24 | C=CC(=O)N1CC(N2CCC(c3cc(C#N)c4c(c3)Nc3nccc(N5CCOCC5)c3C(C)O4)CC2)C1 (stereo not shown) [Compound 342] |  |  |  |  |  | CDK7_A549 mutant hCDK7(pIC50) [1]: 5.18; kinact/KI [2, 8]: 633 M⁻¹ s⁻¹; CDK7_A549 Wild-type CDK7 (pIC50) [3]: 7.85
25 | CC#CC(=O)N1CC(N2CC(c3cc(C#N)c4c(c3)Nc3nccc(C5CCOCC5)c3[C@H](C)O4)C2)C1 (single isomer, unassigned) [Compound 486] | > 10000 nM | 5620 nM |  |  | 1.32 M⁻¹ s⁻¹ | 
26 | C=CC(=O)N1CC[C@H](N2CC(c3cc4c(c(C5CC5)n3)OCc3c(N5CCOCC5)ccnc3N4)C2)C1 (single isomer, unassigned) [Compound 326] | 7760 nM | 89.1 nM |  |  |  | kinact/KI [2, 8]: 939 M⁻¹ s⁻¹
27 | C=CC(=O)N1CCC(N2CCC(c3ccc4c(c3)Nc3nccc(N5CCS(=O)(=NC)CC5)c3CO4)CC2)CC1 [Compound 95] | > 10000 nM | 288 nM | 0.48 µM | 4.87e-05 s⁻¹ | 101 M⁻¹ s⁻¹ | 
28 | C=CC(=O)N1CC[C@H](N2CCC(c3cc(C)c4c(c3)Nc3nccc(-c5cnn(C)c5)c3CO4)CC2)C1 (single isomer, unassigned) [Compound 138] | ~3720 nM | 28.8 nM |  |  |  | kinact/KI [2, 8]: 1330 M⁻¹ s⁻¹
29 | C=CC(=O)N1CC(N2CCC(c3ccc4c(c3)Nc3nccc(N5CCOCC5)c3CO4)CC2)C1 [Compound 107] | > 10000 nM | 110 nM | 0.056 µM | 5.28e-05 s⁻¹ | 943 M⁻¹ s⁻¹ | 
30 | C=CC(=O)N1CC(c2ccnc(-c3ccc4c(c3)Nc3nccc(N5CCOCC5)c3CO4)c2)C1 [Compound 61] | > 10000 nM | 1620 nM | 1.32 µM | 4.84e-05 s⁻¹ | 36.6 M⁻¹ s⁻¹ | 
31 | C=CC(=O)N1CC(N2CC(c3cc(F)c4c(c3)Nc3nccc(N5CCOCC5)c3CO4)C2)C1 [Compound 166] | > 10000 nM | 75.9 nM | 0.0262 µM | 5.16e-05 s⁻¹ | 1970 M⁻¹ s⁻¹ | 
32 | COC(=O)/C=C/C(=O)N1CC[C@H](N2CCC(c3cc4c(c(C)n3)OCc3c(-c5cnn(C)c5)ccnc3N4)CC2)C1 (single isomer, unassigned) [Compound 297] | > 10000 nM | ~23.4 nM |  |  |  | kinact/KI [2, 8]: 1240 M⁻¹ s⁻¹
33 | CCOC(=O)/C=C/C(=O)N1CC(N2CCC(c3cc4c(c(C)n3)OCc3c(-c5cnn(C)c5)ccnc3N4)CC2)C1 [Compound 435] | > 10000 nM | 69.2 nM |  |  |  | kinact/KI [2, 8]: 856 M⁻¹ s⁻¹
